# Key:
# [1] = test system: U-937-derived macrophages; experiment: Intracellular elastin-FITC degradation; assay type: cell-based, human
# Description: To evaluate the effect of the inhibitors on the elastolytic activity of cathepsin V, we assessed the intracellular degradation of elastin-FITC, a soluble bovine neck ligament elastin that is heavily labeled with FITC such that the fluorescence of the conjugate is quenched. Upon proteolysis, fluorescence is recovered and can be detected. U-937 cells, differentiated into macrophage-like cells, were seeded (at 1 × 10^5 cells/well) into 24-well plates with 500 μL of medium supplemented with 50 nM PMA. Inhibitors or DMSO (0.1 %) and elastin-FITC (10 μg/mL; AnaSpec, Fermont, CA, USA) were added to the medium and incubated for 24 h at 37 °C. Cells were detached and washed with PBS, and propidium iodide (BD Bioscience) was added to exclude dead cells. Therefore, green fluorescence arising from elastin-FITC degradation was monitored only for viable cells. The measurement was performed using a FACSCalibur instrument (BD Biosciences).
# [2] = Aqueous stability (HPLC-based assay); assay type: physicochemical; settings: 50 μM, 60 h
# Description: HPLC analyses were performed as described under the Compound characterization section. The method used a Waters Acquity UPLC® HSS C18 SB column (2.1 × 50 mm, 1.8 µm) thermostated at 40 °C, injection volume, 10 µL; flow rate, 0.3 mL/min; detector λ, 280 nm; mobile phase A: 0.1 % TFA (v/v) in water; mobile phase B: MeCN. Method: 0–9 min, 5 % – 95 % B; 9 – 11 min, 95 % B; 11 – 11.5 min, 95 % - 5% B.
# Compound 7 stock solution (1 mM) was prepared in DMSO, while internal standard (caffeine, 1 mM) was dissolved in buffer (PBS pH 7.4). The aqueous stability solution was prepared by mixing 1400 µL buffer, 400 µL MeCN, 100 µL internal standard stock solution, and 100 µL compound stock solution in a HPLC vial to give 50 μM compound, 50 μM internal standard, 20 % MeCN, and 5 % DMSO in buffer, which was injected immediately and then at hourly intervals for 60 h while being incubated at 37 °C. The analyte areas under curve (AUCs) were normalized on internal standard AUCs.
# Kinetic solubility = assay type: physicochemical; settings: PBS pH 7.4 with 5 % DMSO, pH 7.4, aqueous with cosolvent or surfactant or cyclodextrin, kinetic from dmso stock; PBS with 5 % DMSO
# Description: The solubility of compound 7 was determined in buffer (PBS pH 7.4) containing 5 % DMSO. Serial dilutions of 7 were prepared in DMSO at concentrations of 4 mM, 2 mM, 1.5 mM, 1 mM, and 0.2 mM. The assay was performed in 96-well microplates in duplicate. Briefly, to 190 µL of buffer, 10 µL of the compound stock solution in DMSO was added. The plate was shaken and the absorbance at 620 nm was measured using a plate reader (Synergy H4, BioTek Instruments, Inc., Santa Clara, CA, USA) in area scan mode (5 × 5 measurements per well). The mean absorbance was then compared relative to the blank to determine the solubility of the compound at each concentration tested.
# Cathepsin V = target: T1, Cathepsin V (Homo sapiens, UniProt O60911); experiment: Determination of relative inhibition, substrate Z-Phe-Arg-AMC; assay type: biochemical; settings: inhibitor 50 μM; substrate 2 μM; mean ± SD (n = 2); read-out: Cathepsin V Ri (%) relative inhibition
# T1 construct: made in house; host or cells: Pichia pastoris
# T1 sequence (O60911 114-334): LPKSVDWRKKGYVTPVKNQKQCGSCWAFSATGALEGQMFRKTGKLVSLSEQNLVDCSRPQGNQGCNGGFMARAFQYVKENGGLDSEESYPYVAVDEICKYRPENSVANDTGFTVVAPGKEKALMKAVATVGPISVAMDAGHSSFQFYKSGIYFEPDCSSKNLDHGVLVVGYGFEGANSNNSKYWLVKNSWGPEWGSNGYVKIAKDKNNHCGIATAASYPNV
# Description: (§1) Human recombinant cathepsin V was expressed in Pichia Pastoris, and human recombinant cathepsin L was expressed in Escherichia coli, as reported, [51]. To determine the activities of cathepsins V and L, 100 mM acetate buffer (pH 5.5), containing 0.1 % PEG 8000 (Sigma-Aldrich, St. Louis, MO, USA), 5 mM cysteine, and 1.5 mM EDTA was used. Prior to the assay, the enzyme was activated in the assay buffer for 5 min at 37 °C.
# (§2) The effect of the inhibitors on cathepsin V and L activity was determined using the substrate Z-Phe-Arg-AMC (Bachem, Bubendorf, Switzerland). The reaction was initiated by adding 90 μL of the activated enzyme (final concentration 2.5 ng/mL and 0.02 nM for cathepsins V and L, respectively) to the wells of a black microtiter plate containing 5 μL of substrate (with a final concentration 2 μM) and 5 μL of inhibitor (with a final concentration of 50 μM). The formation of fluorescent degradation products during the reaction was monitored continuously at 460 nm ± 10 nm with excitation at 380 nm ± 20 nm at 37 °C on a Tecan Infinite M1000 (Mannedorf, Switzerland) spectrofluorometer. All assay mixtures contained 5 % (v/v) DMSO. To prevent false-positive inhibition due to the formation of compound aggregates, 0.01 % Triton X-100 was used. All measurements were performed in triplicate and repeated at least twice. Relative inhibition was calculated using the following equation: relative inhibition (%) = 100(1- vi/vo), where vi and vo denote the reaction velocities in the presence and absence of the inhibitor, respectively.
# [3] = target: T2, human recombinant cathepsin L (Homo sapiens, UniProt P07711); experiment: as above; assay type: biochemical; settings: inhibitor 50 μM; substrate 2 μM; mean ± SD (n = 2); read-out: Cathepsin L Ri (%) relative inhibition
# T2 construct: made in house; host or cells: Escherichia coli
# T2 sequence (P07711 114-333): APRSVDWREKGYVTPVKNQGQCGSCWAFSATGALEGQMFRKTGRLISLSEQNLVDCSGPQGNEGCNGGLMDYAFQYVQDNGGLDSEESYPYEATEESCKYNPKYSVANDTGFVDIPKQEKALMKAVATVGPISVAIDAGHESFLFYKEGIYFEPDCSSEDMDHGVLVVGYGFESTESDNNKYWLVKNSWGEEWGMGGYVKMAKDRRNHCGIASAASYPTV
# Description: as §1, §2
# K-562 cells = experiment: Cell viability assay (MTS); assay type: cell-based, human; settings: 24 h
# Description: The effect of compound 7 on the viability of NK-92, TALL-104, and K-562 cells was evaluated using the MTS [3-(4,5-dimethylthiazol-2-yl)-5-(3-carboxymetoxyphenyl)-2-(4-sulfophenyl)–2H-tetrazolium] colorimetric assay (CellTiter 96 Aqueous One Solution Cell Proliferation Assay, Promega, Madison, WI, USA). NK-92, TALL-104, and K-562 cells were seeded at 2.5 × 10^4, 1 × 10^5, and 1 × 10^4 cells/well, respectively, into a 96-well microplate and treated with inhibitors (2.5, 5, or 10 µM) or DMSO (0.1 %) for 24 h. After incubation, 10 µL of the reagent MTS was added to the wells, and the absorbance of formazan was measured at 492 nm on a Tecan Infinite M1000 (Mannedorf, Switzerland). Cell viability (%) was expressed as the ratio between absorbance in the presence of the compounds and in the presence of DMSO. All assays were performed in quadruplicate and repeated at least twice.
structure (smiles),measurement,setting,value
"O=C(NCc1cccc2ccccc12)NCC1CCN(C(=O)Oc2ccccc2)CC1 [Compound 7, Phenyl 4-((3-(naphthalen-1-ylmethyl)ureido)methyl)piperidine-1-carboxylate]",decrease of elastin-FITC degradation,"[1]; 10 μM, 24 h, vs DMSO",9.5 ± 1.6%
same,"elastin-FITC degradation, compound 7 added to CLIK-148","[1]; compound 7 10 μM + CLIK-148, vs control cells and CLIK-148 alone",significantly decreased
same,aqueous stability,"[2]; PBS pH 7.4, 20 % MeCN, 5 % DMSO, 37 °C",stable for days
same,difference between the last and the first timepoint (normalized AUC),"[2]; PBS pH 7.4, 37 °C, smaller than experimental error",< 2%
same,solubility kinetic,Kinetic solubility,75 to 100 µM
same,inhibition at 50 µM,Cathepsin V,> 20%
same,inhibition at 50 µM,[3],12.1 ± 1.8%
same,viability of K-562 cells,K-562 cells; 10 μM,slightly decreased
same,viability of K-562 cells,K-562 cells; up to 5 μM,not decreased
